System: Escherichia coli gene product (lactate dehydrogenase)
Experiment: Reaction of purified gene product with 19-substrate compound cocktail, changes detected by CE/MS
Type: biochemical
Conditions: 1 μg purified protein added to cocktail (100 μM each substrate, NADH 500 μM), 37° C., 30 min; control without gene product; FIG. 2
Protocol: As the compound cocktail, 100 μl of HEPES buffer (5 mM, pH7.5) comprising 19 different substrate compounds involved in the glycolytic system, TCA cycle, or pentose phosphate cycle (fructose-1,6-phosphate (F16P), 6-phosphogluconate (6PG), 2,3-phosphoglycerate (23DPG), glucose-1-phosphate (G1P), fructose-6-phosphate (F6P), glucose-6-phosphate (G6P), ribulose-5-phosphate (Ribulose5P), ribose-5-phosphate (Ribose5P), erythrose-4-phosphate (Erythrose4P), isocitric acid (iso-Citrate), citric acid (Citrate), 2-phosphoglycerate, 3-phosphoglycerate (2PG/3PG), cis-aconitic acid (cis-Aconitate), phosphoenolpyruvic acid (PEP), succinic acid (Succinate), fumaric acid (Fumarate), lactic acid (Lactate), and pyruvic acid (Pyruvate)) (100 μM each; the final concentration is shown in all parentheses hereafter), supplemented with NADH (500 μM), MgSO4 (10 mM), and KCl (10 mM) was used. […]
One μg of the purified protein was added to the above compound cocktail and incubated at 37° C. for 30 min. Immediately thereafter, the protein was removed by ultrafiltration and the reaction mixture was analyzed using a capillary electrophoresis-mass spectrometer (CE/MS). […]
CE/MS was used according to the instructions described in documents (Japanese Patent No. 3341765 and Soga T, et al., Anal. Chem., 74, 2233-2239 (2002)). […] Each compound can be detected as its own mass number (m/z).

Row | SMILES | change in concentration of the compound in the cocktail compared with the control experiment
1 | CC(O)C(=O)O (centres unmarked) [lactic acid] | increase
2 | CC(=O)C(=O)O [pyruvic acid] | significant decrease
